Reference: patent US10562857B2 (AFASCI, Inc., priority 2015, dated 2020)
Where two headings read alike, the source gives them in different places.

Key:
[1] = molecular target: T1, Cav3.1 (Homo sapiens, UniProt O43497); assay: Whole-cell patch clamp of T-type Cav3.1 channel expressed in HEK293 cells; format: cell-based; settings: Table 2
T1 construct: expressed in transfected cells; host or cells: HEK-293, tetracycline inducible expression system (Invitrogen)
Procedure: Cav3.1, Cav3.2 or Cav3.3 channels were expressed in human embryonic kidney (HEK)-293 cells using a tetracycline inducible expression system (Invitrogen). Cells were maintained in 25 cm^2 tissue culture flasks at 37° C., 5% CO2, and 100% relative humidity in D-MEM/F12 (Dulbecco's Modified Eagle Medium/Nutrient Mixture F-12; Gibco) supplemented with fetal bovine serum (FBS, 10% v/v), sodium pyruvate (0.5 mM, Gibco), penicillin-streptomycin (100 U/mL, 100 μg/mL) and Geneticin® Selective antibiotic (G418; 0.5 mg/mL). Cells were detached from the flask base using a non-enzymatic cell dissociation solution (Cellstripper, Corning), removed and re-seeded on to poly-D-lysine coated glass coverslips in 35 mm dishes.
Whole-cell voltage clamp recordings were performed on rat or mouse DRG neurons within 2 days after acutely dissociation or cultured HEK293 cells expressing T-type channels (encoded by Cav3.1, Cav3.2 or Cav3.3 channels). All experiments were performed at room temperature (around 21° C.). Whole-cell currents were recorded using a MultiClamp 700B amplifier and analyzed offline with pCLAMP10.4 software (Molecular Devices, LLC, Sunnyvale Calif., USA). […] Since the sodium ions were absent in the external solution, tetrodoctoxin was not needed. Calcium currents were recorded at a holding potential of −100 mV and then depolarized to −30 mV for 100 ms to activate either Cav3.1, Cav3.2, or Cav3.3 expressed in HEK cells. An interpulse interval of 10 seconds allowed the channel recovery from inactivation, and achieved stable current recordings. To record sodium (Na^+) currents in DRG neurons, the external solution used the modified Krebs solution specified above. The internal solution was composed (in mM) of 120 CsF, 10 HEPES, 11 EGTA, 1 CaCl2, 1 MgCl2, 10 TEA-Cl, 4 MgATP and 0.3 MgGTP (pH 7.3-7.4 adjusted with CsOH). […] To record potassium currents in DRG neurons, the external solution used the modified Kreb's solution specified above. The internal solution was composed (in mM) of 65 KCl, 80 KF, 5 KOH, 10 EGTA, 2 MgATP (pH 7.3-7.4 adjusted with KOH). Recording electrodes were fabricated using a P-87 puller (Sutter Instrument Co., Novato, Calif., USA). The tip of resistance was 3-4 MQ in bath and the series resistance was less than 10 MΩ after whole cell configuration. All reagents were purchased from Sigma unless specified otherwise. Test compounds were usually applied via a rapid solution exchange system with 8 fine polyplastic tubings (100 μm, OD) glued in a holder in parallel and located closely to the recorded cells. The current responses were normalized to the control, percent inhibition was calculated and sigmoidal dose-response curves were generated using XLFit (IDBS, Surrey, UK) or Prism (GraphPad Software, La Jolla, Calif., US) to calculate IC50 values and Hill slopes using the following equation Y=Bottom+(Top−Bottom)/(1+10^((Log EC50−X)[…])).

[2] = molecular target: T2, hERG channel (Homo sapiens, UniProt Q12809); assay: hERG patch clamp in hERG-expressing CHO cells; format: cell-based
T2 construct: expressed in transfected cells; host or cells: CHO
T2 sequence (Q12809 whole entry): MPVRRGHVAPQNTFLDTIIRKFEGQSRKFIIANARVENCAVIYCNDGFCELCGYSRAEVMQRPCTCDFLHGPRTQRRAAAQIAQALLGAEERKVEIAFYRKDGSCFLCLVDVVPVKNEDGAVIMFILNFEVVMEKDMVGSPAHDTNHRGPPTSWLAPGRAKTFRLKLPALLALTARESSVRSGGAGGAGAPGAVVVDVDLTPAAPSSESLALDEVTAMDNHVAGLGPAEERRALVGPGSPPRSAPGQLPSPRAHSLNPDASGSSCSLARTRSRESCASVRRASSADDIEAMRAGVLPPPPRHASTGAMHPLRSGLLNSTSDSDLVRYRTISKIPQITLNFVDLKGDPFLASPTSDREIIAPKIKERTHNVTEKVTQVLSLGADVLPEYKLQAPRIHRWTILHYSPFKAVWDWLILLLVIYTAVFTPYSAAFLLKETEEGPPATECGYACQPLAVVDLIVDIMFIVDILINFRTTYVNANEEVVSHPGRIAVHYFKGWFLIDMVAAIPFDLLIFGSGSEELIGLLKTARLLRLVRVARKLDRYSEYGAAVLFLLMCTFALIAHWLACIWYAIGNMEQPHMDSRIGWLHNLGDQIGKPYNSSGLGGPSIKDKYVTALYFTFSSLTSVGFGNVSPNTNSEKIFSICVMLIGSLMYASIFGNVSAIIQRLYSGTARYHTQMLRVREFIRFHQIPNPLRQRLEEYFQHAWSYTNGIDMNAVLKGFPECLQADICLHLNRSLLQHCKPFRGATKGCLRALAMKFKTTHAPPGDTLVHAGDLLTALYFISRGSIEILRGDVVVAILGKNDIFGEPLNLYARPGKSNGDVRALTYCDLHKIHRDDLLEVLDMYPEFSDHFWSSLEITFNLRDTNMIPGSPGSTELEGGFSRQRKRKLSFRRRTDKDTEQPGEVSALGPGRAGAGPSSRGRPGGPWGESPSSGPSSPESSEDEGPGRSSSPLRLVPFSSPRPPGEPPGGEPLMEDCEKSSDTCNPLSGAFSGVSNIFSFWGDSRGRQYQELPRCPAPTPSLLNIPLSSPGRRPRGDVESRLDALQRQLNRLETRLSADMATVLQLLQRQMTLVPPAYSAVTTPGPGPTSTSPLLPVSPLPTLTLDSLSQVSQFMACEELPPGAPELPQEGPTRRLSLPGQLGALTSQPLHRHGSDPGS
Procedure: Sodium and potassium channels in the rodent DRG neurons were recorded and tested as described above. The human ether-a-go-go-related gene (hERG) encodes the rapidly activating potassium channel (IKr) contributing to the repolarization of the cardiac action potential. […] Therefore the representative example compounds in Table 2 were tested against the hERG channel.
Whole-cell patch clamp electrophysiology is employed to test compounds and a positive control compound. Extracellular Ringer's solution contains (in mM): NaCl (130), KCl (5), CaCl2 (1), Glucose (10), HEPES-Na (10) (pH 7.4 adjusted with HCl). Internal pipette solution contains (in mM): KF (120), CaCl2 (1), MgCl2 (1), KCl (10), EGTA (11), HEPES (10), KOH (11) (pH 7.2 adjusted with KOH). The hERG potassium currents are recorded under a holding potential of −80 mV and then depolarized to 40 mV for 2.5 seconds to activate the hERG channel. The peak tail currents are induced by a repolarizing pulse to −50 mV for 4 seconds. A 250 millisecond prepulse to −50 mV is applied for leak subtraction. This voltage-clamp pulse protocol is performed continuously during the experiment every 20 seconds allowing recovery from inactivation. For IC50 determination, each concentration is applied for 2 mins to reach a steady-state inhibitory level prior to the next higher concentrations tested. Each concentration is tested at 2-3 times (n=2-3).

[3] = test system: DRG ion channels Na+; assay: Sodium currents in DRG neurons, patch clamp; format: cell-based, rodent; settings: Table 2
Procedure: All the procedures related to animal handling were in strict accordance with NIH guidelines and IACUC approved protocols. Briefly, the spine was taken out and split into two halves from the middle line after sacrificing the mice by decapitation. […] The DRG neurons were minced with fine scissors and incubated at 35° C. for 50 min. […] Finally the cells were dispersed onto poly-1-ornithine-coated cover slips and maintained in a modified Krebs solution with streptomycin sulfate (0.2 mM), Penicillin G Sodium (0.3 mM), and Gentamycin (0.1 mM) at 21° C. […] All experiments were performed at room temperature (around 21° C.). Whole-cell currents were recorded using a MultiClamp 700B amplifier and analyzed offline with pCLAMP10.4 software (Molecular Devices, LLC, Sunnyvale Calif., USA). […] The internal solution was composed (in mM) of 125 CsCl, 10 HEPES (acid), 10 EGTA (ethylene glycol tetraacetic acid), 1 CaCl2, 1 MgCl2, 4 MgATP and 0.3 […] 7.3-7.4 adjusted with CsOH; osmolality verified as 295 mOsm/kg). Since the sodium ions were absent in the external solution, tetrodoctoxin was not needed. […] To record sodium (Na^+) currents in DRG neurons, the external solution used the modified Krebs solution specified above. […] To record potassium currents in DRG neurons, the external solution used the modified Kreb's solution specified above. The internal solution was composed (in mM) of 65 KCl, 80 KF, 5 KOH, 10 EGTA, 2 MgATP (pH 7.3-7.4 adjusted with KOH). Recording electrodes were fabricated using a P-87 puller (Sutter Instrument Co., Novato, Calif., USA). […] All reagents were purchased from Sigma unless specified otherwise. […] Selectivity among the three subtypes of the Cav3 T-type channel, and off-target effects on other key ion channels of the representative example compounds are presented in Table 2. Sodium and potassium channels in the rodent DRG neurons were recorded and tested as described above. The human ether-a-go-go-related gene (hERG) encodes the rapidly activating potassium channel (IKr) contributing to the repolarization of the cardiac action potential. The blockade of hERG can lead to a QT prolongation in the electrocardiogram known as long QT syndrome (Sanguinetti, et al., 1995). Therefore the representative example compounds in Table 2 were tested against the hERG channel.

T1 sequence (O43497 whole entry): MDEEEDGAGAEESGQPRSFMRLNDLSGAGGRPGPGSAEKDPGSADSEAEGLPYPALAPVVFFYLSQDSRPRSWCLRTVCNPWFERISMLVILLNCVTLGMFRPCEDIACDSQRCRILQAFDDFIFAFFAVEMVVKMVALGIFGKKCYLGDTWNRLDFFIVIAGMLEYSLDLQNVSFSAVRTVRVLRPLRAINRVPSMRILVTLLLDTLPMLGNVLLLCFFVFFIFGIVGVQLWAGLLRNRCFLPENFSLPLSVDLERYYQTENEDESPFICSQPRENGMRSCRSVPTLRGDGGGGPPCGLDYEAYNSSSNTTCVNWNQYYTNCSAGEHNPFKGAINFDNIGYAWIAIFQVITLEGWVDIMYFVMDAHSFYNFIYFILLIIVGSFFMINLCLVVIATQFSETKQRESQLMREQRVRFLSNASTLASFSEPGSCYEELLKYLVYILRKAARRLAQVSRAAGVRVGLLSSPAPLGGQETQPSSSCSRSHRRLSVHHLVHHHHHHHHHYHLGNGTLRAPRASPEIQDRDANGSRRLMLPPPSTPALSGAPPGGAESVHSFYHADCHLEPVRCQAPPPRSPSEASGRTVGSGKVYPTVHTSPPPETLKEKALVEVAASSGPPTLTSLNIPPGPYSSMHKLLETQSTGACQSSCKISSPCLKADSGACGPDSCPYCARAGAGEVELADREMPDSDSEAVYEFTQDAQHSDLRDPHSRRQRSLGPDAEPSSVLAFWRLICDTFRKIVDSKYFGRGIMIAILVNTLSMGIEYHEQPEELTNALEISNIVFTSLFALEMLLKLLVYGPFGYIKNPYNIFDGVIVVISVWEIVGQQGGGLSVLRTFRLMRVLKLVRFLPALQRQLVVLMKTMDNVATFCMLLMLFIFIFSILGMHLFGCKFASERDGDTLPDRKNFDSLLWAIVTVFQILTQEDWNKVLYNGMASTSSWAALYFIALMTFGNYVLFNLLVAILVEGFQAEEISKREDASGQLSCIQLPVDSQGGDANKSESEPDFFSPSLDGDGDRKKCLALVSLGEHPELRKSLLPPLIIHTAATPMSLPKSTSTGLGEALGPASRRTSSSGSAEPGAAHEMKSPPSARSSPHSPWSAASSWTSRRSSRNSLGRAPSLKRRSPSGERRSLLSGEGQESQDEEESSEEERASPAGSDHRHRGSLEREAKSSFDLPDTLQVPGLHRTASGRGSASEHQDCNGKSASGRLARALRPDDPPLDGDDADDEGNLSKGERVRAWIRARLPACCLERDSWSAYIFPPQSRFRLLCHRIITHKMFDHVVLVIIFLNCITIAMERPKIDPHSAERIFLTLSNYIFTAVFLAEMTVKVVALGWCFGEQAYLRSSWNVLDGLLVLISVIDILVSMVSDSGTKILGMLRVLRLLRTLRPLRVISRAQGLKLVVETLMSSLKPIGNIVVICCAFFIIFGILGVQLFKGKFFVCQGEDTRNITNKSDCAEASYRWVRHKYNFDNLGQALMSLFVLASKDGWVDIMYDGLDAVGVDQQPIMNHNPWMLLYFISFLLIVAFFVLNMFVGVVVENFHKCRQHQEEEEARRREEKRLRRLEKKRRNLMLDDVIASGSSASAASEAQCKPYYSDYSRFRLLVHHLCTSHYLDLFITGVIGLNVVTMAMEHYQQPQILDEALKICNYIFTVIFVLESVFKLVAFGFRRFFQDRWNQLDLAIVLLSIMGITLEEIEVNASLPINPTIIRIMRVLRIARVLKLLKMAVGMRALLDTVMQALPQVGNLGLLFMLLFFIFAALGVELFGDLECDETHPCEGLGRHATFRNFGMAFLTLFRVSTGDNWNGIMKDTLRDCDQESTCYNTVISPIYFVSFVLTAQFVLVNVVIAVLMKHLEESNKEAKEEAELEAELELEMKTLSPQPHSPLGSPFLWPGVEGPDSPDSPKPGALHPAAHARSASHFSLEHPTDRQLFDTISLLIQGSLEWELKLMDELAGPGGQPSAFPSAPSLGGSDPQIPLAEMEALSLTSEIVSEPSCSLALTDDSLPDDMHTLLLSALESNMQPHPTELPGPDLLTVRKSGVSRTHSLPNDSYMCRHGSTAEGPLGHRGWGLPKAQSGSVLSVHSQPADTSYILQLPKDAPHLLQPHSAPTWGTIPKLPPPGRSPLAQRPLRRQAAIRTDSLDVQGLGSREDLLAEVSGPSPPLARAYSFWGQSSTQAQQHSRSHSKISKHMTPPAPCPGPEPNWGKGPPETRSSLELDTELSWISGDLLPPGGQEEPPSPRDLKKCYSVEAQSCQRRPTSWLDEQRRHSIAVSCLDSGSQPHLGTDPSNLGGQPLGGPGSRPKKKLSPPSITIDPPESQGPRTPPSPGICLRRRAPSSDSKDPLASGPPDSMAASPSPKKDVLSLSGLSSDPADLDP

SMILES | IC50 [1] | IC50 ([2]; Table 2, read-out: hERG IC50) | IC50 [3] | IC50 [2]
CC(C)(C)NC(=O)CN1CCC2(CC1)C[C@H]2NC(=O)c1cc(C(F)(F)F)cc(C(F)(F)F)c1 (single isomer, unassigned) [Example 144, ((R)—N-(6-(2-(tert-butylamino)-2-oxoethyl)-6-azaspiro[2.5]octan-1-yl)-3,5-bis(trifluoromethyl)benzamide or (S)—N-(6-(2-(tert-butylamino)-2-oxoethyl)-6-azaspiro[2.5]octan-1-yl)-3,5-bis(trifluoromethyl)benzamide] | 0.04 µM | 4.6 µM | 34.4 µM | –
CC(C)(C)NC(=O)CN1CCC2(CC1)C[C@H]2NC(=O)c1cc(F)cc(Cl)c1 (single isomer, unassigned) [Example 129, (R)—N-(6-(2-(tert-Butylamino)-2-oxoethyl)-6-azaspiro[2.5]octan-1-yl)-3-chloro-5-fluorobenzamide or (S)—N-(6-(2-(tert-Butylamino)-2-oxoethyl)-6-azaspiro[2.5]octan-1-yl)-3-chloro-5-fluorobenzamide] | 1.04 µM | 16 µM | > 100 µM | –
CC(C)(C)NC(=O)CN1CCC2(CC1)CC2NC(=O)c1cc(F)cc(Cl)c1 (stereo not drawn) [Example 17, N-(6-(2-(tert-Butylamino)-2-oxoethyl)-6-azaspiro[2.5]octan-1-yl)-3-chloro-5-fluorobenzamide] | 0.29 µM | – | > 100 µM | 10.7 µM
